Assay results: patent US9199931B2, “Pyrrolidine derivatives” (UNIVERSITE CLAUDE BERNARD LYON I, priority 2012, dated 2015)
Entries after “also recorded” stand apart in the source; their conditions may differ.

System: glutamate levels in the striatum
Assay: not given
Conditions: ex vivo and in vivo preparations, refs [89-92]; cited from earlier work

| Compound | effect on glutamate levels in the striatum |
| --- | --- |
| Cc1c(C(=O)c2cccc3ccccc23)c2cccc3c2n1[C@H](CN1CCOCC1)CO3 [WIN 55, 212-2] | induces a reduction in the glutamate levels |
| Cc1c(C(=O)NN2CCCCC2)nn(-c2ccc(Cl)cc2Cl)c1-c1ccc(Cl)cc1 [rimonabant] | cause an increase or do not affect the extracellular glutamate levels |

System: extracellular glutamate (Glu) and aspartate (Asp) levels, striatum
Assay: in vivo intracerebral microdialysis: extracellular glutamate and aspartate levels in striatum
Design: species or system rat (Wistar)
Conditions: 1 mmol/L by reverse microdialysis, striatum, anesthetized rats
Text: One of the widespread methodological approaches, both in academic laboratories and in industrial laboratories, and used for following the extracellular concentrations of glutamate (Glu) and of aspartate (Asp) before, during and after administration of pharmacological agents targeting their receptors is intracerebral microdialysis. This type of test was therefore used, in order to track the in vivo effects of the molecules according to the invention as compared with those of kainic acid, for which the synthesized molecules are structural analogues (substituted pyrrolidines).
Concentric microdialysis probes with a regenerated cellulose membrane (Spectra/Por hollow fiber; molecular cut off 6,000 Da, 225 μm in external diameter, a length of 3 mm, Spectrum Medical Industries, Los Angeles, Calif., USA) and tubings in molten silica (40 μm i.d×105 μm o.d., Polymicro Technology, Phoenix, Ariz., USA) were manufactured according to a design already published (Bert et al 1996, [26]). They were perfused with a flow rate of 1 μl/min with artificial cerebrospinal fluid or CSF (145.0 mM NaCl; […]; 1.0 mM MgCl2; 1.2 mM CaCl2; 0.45 mM NaH2PO4; 1.55 mM Na2HPO4; pH 7.4) by means of a Harvard pump (Model 22, South Natick, Mass., USA).
The in vivo microdialysis experiments were conducted on male rats of the Wistar strain with an average weight of about 300 g, (provider: Charles River, L'Arbresle, France) anesthetized with urethane (a dose of 1.4 g/kg via an i.p, route, provider: Sigma-Aldrich, St. Louis, Mo., USA). The probes were implanted dorso lateral striatum according to the following stereotaxic coordinates relatively to the bregma: antero-posteriority 0 mm, laterality […], depth […] under the cortical surface. The dialysates (samples) were collected from the beginning of the 4th hour after implantation of the probe. The samples were taken every 5 minutes in PCR tubes of 200 μl (Axygene, Union City, Calif., USA) and immediately frozen at −20° C. The samples were analyzed subsequently in order to determine the glutamate and aspartate contents. The pharmacological agents and the compounds according to the invention were administered in situ by reverse microdialysis by changing the perfusion at the inlet of the probe of the CSF without any pharmacological agent to the one containing the pharmacological agent(s) (Bert et al., 2002 [27]; Parrot et al 2003 [28]).
CE analyses were carried out with a P/ACE MDQ system (Beckman-Coulter, Fullerton, Calif., USA) equipped with an external detector LIF ZETALIF (Picometrics, Toulouse, France). Detection was achieved by fluorescence at a wavelength of 442 nm and generated with a He—Cd laser Omnichrome (Chino, Calif., USA). The emission intensity was collected at 490 nm. Before analysis, the samples were derived with naphthalene-2,3-dicarboxaldehyde with cyanide ions as a nucleophilic agent (pH 8.7; borate buffer 500 mM). The separations were conducted in a capillary of molten silica with an internal diameter of […] and an outer diameter of 375 μm with a length of 63 cm, with a useful length of 52 cm (Polymicro Technology) by using the procedure entirely detailed and validated earlier (Sauvinet et al., 2003 [29] Bert et al., 2002 (271). The Glu and Asp concentrations measured in striatum samples were above detection limits and were determined by interpolation by means of standard ranges.
All the reagents of the neurochemical study (except for the compound according to the invention) were purchased from Sigma-Aldrich (St Louis, Mo., USA). The mother-solutions of the synthesized molecules, of the kainate (KA, agonist of the KA receptors for glutamate), CNQX, 6-cyano-7-nitroquinoxaline-2,3(1H,4H)-dione (CAS-No. 115066-14-3, antagonist of KA receptors), from Glu and Asp were aliquoted to 1 or 0.1 mM and stored at −30° C. After their administration, the tested pharmacological agents were diluted in artificial CSF. […]

| Compound | effect on extracellular Glu and Asp levels |
| --- | --- |
| N[C@H](C(=O)O)[C@H]1CNC[C@H]1O [Compound I.1, (αS,3R,4S) α-amino-(4-hydroxy-pyrrolidin-3-yl)acetic acid] | effects similar to KA |
| C=C(C)[C@H]1CN[C@H](C(=O)O)[C@H]1CC(=O)O [KA, kainate, reference compound] | affected |
| CNC(=O)[C@@H](N)[C@H]1CNC[C@H]1O [Compound I.4, .-amino-(4-hydroxy-pyrrolidin-3-yl)-N-methylacetamide(αS,3R,4S)] | a reduction in the Glu and Asp levels; also recorded: a reduction in the cerebral extracellular glutamate levels |
| N[C@@H](C(=O)O)[C@@H]1CNC[C@@H]1O [Compound I.2, (αR,3S,4R) α-amino-(4-hydroxy-pyrrolidin-3-yl)acetic acid] | a reduction in the Glu and Asp levels; also recorded: a reduction in the cerebral extracellular glutamate levels |
| CNC(=O)[C@H](NC(C)=O)[C@@H]1CNC[C@@H]1O [Compound I.3, α-acetamido-(4-hydroxy-pyrrolidin-3-yl)-N-methylacetamide(αR,3S,4R)] | an effect similar to that of kainate |

Same assay, conditions: compound at 1 mmol/L co-administered with CNQX; Asp levels are increased

| Compound | effect of co-administration of CNQX on the compound's effects |
| --- | --- |
| CNC(=O)[C@@H](N)[C@H]1CNC[C@H]1O [Compound I.4, .-amino-(4-hydroxy-pyrrolidin-3-yl)-N-methylacetamide(αS,3R,4S)] | seems to partly attenuate its effects |
| N[C@@H](C(=O)O)[C@@H]1CNC[C@@H]1O [Compound I.2, (αR,3S,4R) α-amino-(4-hydroxy-pyrrolidin-3-yl)acetic acid] | seems to partly attenuate its effects |
| CNC(=O)[C@H](NC(C)=O)[C@@H]1CNC[C@@H]1O [Compound I.3, α-acetamido-(4-hydroxy-pyrrolidin-3-yl)-N-methylacetamide(αR,3S,4R)] | seems to partly attenuate its effects |

Same assay, conditions: rat brain; initial glutamate level high, notably greater than 10 μmol/L

| Compound | action on glutamate when the glutamate levels are high |
| --- | --- |
| N[C@H](C(=O)O)[C@H]1CNC[C@H]1O [Compound I.1, (αS,3R,4S) α-amino-(4-hydroxy-pyrrolidin-3-yl)acetic acid] | inhibitory actions on the glutamate |
| CNC(=O)[C@@H](N)[C@H]1CNC[C@H]1O [Compound I.4, .-amino-(4-hydroxy-pyrrolidin-3-yl)-N-methylacetamide(αS,3R,4S)] | inhibitory actions on the glutamate |
| N[C@@H](C(=O)O)[C@@H]1CNC[C@@H]1O [Compound I.2, (αR,3S,4R) α-amino-(4-hydroxy-pyrrolidin-3-yl)acetic acid] | inhibitory actions on the glutamate |
| CNC(=O)[C@H](NC(C)=O)[C@@H]1CNC[C@@H]1O [Compound I.3, α-acetamido-(4-hydroxy-pyrrolidin-3-yl)-N-methylacetamide(αR,3S,4R)] | inhibitory actions on the glutamate |

Same assay, conditions: summary of preliminary results

| Compound | Pharmacological potentiality for modulating the Glu system |
| --- | --- |
| N[C@H](C(=O)O)[C@H]1CNC[C@H]1O [Compound I.1, (αS,3R,4S) α-amino-(4-hydroxy-pyrrolidin-3-yl)acetic acid] | Yes |
| CNC(=O)[C@@H](N)[C@H]1CNC[C@H]1O [Compound I.4, .-amino-(4-hydroxy-pyrrolidin-3-yl)-N-methylacetamide(αS,3R,4S)] | yes |
| N[C@@H](C(=O)O)[C@@H]1CNC[C@@H]1O [Compound I.2, (αR,3S,4R) α-amino-(4-hydroxy-pyrrolidin-3-yl)acetic acid] | Yes |
| CNC(=O)[C@H](NC(C)=O)[C@@H]1CNC[C@@H]1O [Compound I.3, α-acetamido-(4-hydroxy-pyrrolidin-3-yl)-N-methylacetamide(αR,3S,4R)] | yes |

Same assay, conditions: summary of preliminary results; co-administration of CNQX (antagonist of KA receptors)

| Compound | Action through the KA receptors |
| --- | --- |
| N[C@@H](C(=O)O)[C@@H]1CNC[C@@H]1O [Compound I.2, (αR,3S,4R) α-amino-(4-hydroxy-pyrrolidin-3-yl)acetic acid] | yes for Asp |

Same assay, conditions: summary of preliminary results; striatum of anesthetized rats, reverse microdialysis

| Compound | Effect on Glu end/or Asp |
| --- | --- |
| N[C@H](C(=O)O)[C@H]1CNC[C@H]1O [Compound I.1, (αS,3R,4S) α-amino-(4-hydroxy-pyrrolidin-3-yl)acetic acid] | Yes |
| CNC(=O)[C@@H](N)[C@H]1CNC[C@H]1O [Compound I.4, .-amino-(4-hydroxy-pyrrolidin-3-yl)-N-methylacetamide(αS,3R,4S)] | yes |
| N[C@@H](C(=O)O)[C@@H]1CNC[C@@H]1O [Compound I.2, (αR,3S,4R) α-amino-(4-hydroxy-pyrrolidin-3-yl)acetic acid] | Yes |
| CNC(=O)[C@H](NC(C)=O)[C@@H]1CNC[C@@H]1O [Compound I.3, α-acetamido-(4-hydroxy-pyrrolidin-3-yl)-N-methylacetamide(αR,3S,4R)] | yes |

System: not listed separately
Assay: inflow through in vitro model of the choroidal epithelium (blood/cerebrospinal fluid barrier)
Format: in vitro ADME
Conditions: rat; basolateral exposure at 150 μm for 60 minutes, 37° C.; read-out: penetration rate of the peripheral blood compartment towards the brain compartment
Protocol: A study was conducted with the BIP platform (Centre de Recherche en Neurosciences de Lyon, Lyons, France) for comparing the inflow of four compounds of interest through the cerebrospinal liquid/blood barrier. The study was carried out with an in vitro model of the choroidal epithelium restoring this interface. Choroidal cells were exposed by their basolateral pole to the compounds at a concentration of 150 μm for 60 minutes. The permeability of the cell monolayers to saccharose was analyzed in terms of these transfers, in order to detect possible toxicity of the compounds.
The epithelial cells are isolated from the choroidal plexus of a lateral ventricle taken on newly born rats as described earlier. The cells are sown on microporous supports (Transwell PC, pore size 0.4 μm, surface area […], diameter 6.5 mm), and cultivated in DMEM-F12 (1:1) supplemented with 10% FCS, 2 mM glutamine and 50 μg/ml gentamycin, as well as with various growth factors. The medium is renewed every two days until the day of experiment.
The transfer measurements were conducted under kinetic conditions (3 phases), with stirring (200 rpm), at 37° C., in a Ringer-Hepes buffer (RH). The volumes used in both compartments during the transfer are adjusted so as to minimize any hydrostatic pressure effect. The inserts are rinsed in RH before initiating the permeability study. For each compound, the transfer is carried out in parallel on three laminin inserts (without any cell) and three inserts with a cell monolayer.
Inflow measurements (from blood to the cerebrospinal fluid) were conducted during a kinetic study (20 min periods) for the four compounds of interest. Briefly, the compound of interest, diluted to 150 μm in RH is placed in the lower compartment of a multi-well cultivation plate, which reproduces the blood compartment. Transfer is initiated by placing a culture insert containing RH in the upper compartment, which corresponds to the cerebrospinal fluid. At regular intervals, an aliquot of the upper medium is taken and replaced with an equivalent volume of preheated RH at 37° C. […] The samples taken are analyzed by high performance liquid chromatography (HPLC) on an LC10 Shimadzu system chain (Duisburg, Germany), equipped with a spectrophotometric detector.
At the end of the transfer of the compounds of interest, [^14C]-saccharose is added as an aliquot into the upper compartment of the inserts. […] The media sampled in the wells and in the inserts at the end of the transfer of saccharose are analyzed by liquid scintillator counting in a β Canberra Packard TRI-GARB 1600TR counter. […]
The permeability coefficient of the cell monolayer Pe (in cm·min^−1) is calculated from the PS determined on laminin filters and filters with cells and by taking into account the exchange surface area. […]

| Compound | Papp B→A at 60 min, 150 μm [×10⁻⁶ cm/s] |
| --- | --- |
| N[C@H](C(=O)O)[C@H]1CNC[C@H]1O [Compound I.1, (αS,3R,4S) α-amino-(4-hydroxy-pyrrolidin-3-yl)acetic acid] | ≤ 5 |
| CNC(=O)[C@@H](N)[C@H]1CNC[C@H]1O [Compound I.4, .-amino-(4-hydroxy-pyrrolidin-3-yl)-N-methylacetamide(αS,3R,4S)] | ≤ 5 |
| N[C@@H](C(=O)O)[C@@H]1CNC[C@@H]1O [Compound I.2, (αR,3S,4R) α-amino-(4-hydroxy-pyrrolidin-3-yl)acetic acid] | ≤ 5 |
| CNC(=O)[C@H](NC(C)=O)[C@@H]1CNC[C@@H]1O [Compound I.3, α-acetamido-(4-hydroxy-pyrrolidin-3-yl)-N-methylacetamide(αR,3S,4R)] | ≤ 5 |

System: not given
Assay: not given
Conditions: not given

| Compound | melting point [°C] |
| --- | --- |
| CN[C@H](C(=O)O)[C@H]1CNC[C@H]1O (racemic) [Compound I.5, (3,4-cis).α-N-methylamino-(4-hydroxy-pyrrolidin-3-yl)acetic acid] | 192 |

Target: CB1 (receptors of type 1 to endocannabinoids, CB-1) (Homo sapiens, UniProt P21554)
Assay: in vitro specific binding inhibition (radioligand, 60 receptors)
Conditions: n = 2, read-out: % of inhibition of the control specific binding at 10 μM, CB1 towards its agonistic ligand
Protocol: In order to determine the target receptors of the compounds according to the invention, experiments of specific binding inhibition were conducted in vitro. Pharmacology in vitro: tests of specific bindings.
Sixty receptors were tested in the study according to standardized methods by using their specific radioligand as reported earlier.
The results may be expressed as a % of the specific control bond [(measured specific bond/control specific bond)×100] and as a % of inhibition of the specific control bond [100−(measured specific bond/control specific bond)×100] obtained in the presence of one of the two tested compounds (I.2 and I.4).
These experiments (Table 2 hereafter) have shown that the compounds I.2 and I.4 modify the specific binding of a control agonist of the receptors of type 1 to endocannabinoids (CB-1) (according to the test described in reference).

CB1 (receptors of type 1 to endocannabinoids, CB-1), sequence (P21554 whole entry): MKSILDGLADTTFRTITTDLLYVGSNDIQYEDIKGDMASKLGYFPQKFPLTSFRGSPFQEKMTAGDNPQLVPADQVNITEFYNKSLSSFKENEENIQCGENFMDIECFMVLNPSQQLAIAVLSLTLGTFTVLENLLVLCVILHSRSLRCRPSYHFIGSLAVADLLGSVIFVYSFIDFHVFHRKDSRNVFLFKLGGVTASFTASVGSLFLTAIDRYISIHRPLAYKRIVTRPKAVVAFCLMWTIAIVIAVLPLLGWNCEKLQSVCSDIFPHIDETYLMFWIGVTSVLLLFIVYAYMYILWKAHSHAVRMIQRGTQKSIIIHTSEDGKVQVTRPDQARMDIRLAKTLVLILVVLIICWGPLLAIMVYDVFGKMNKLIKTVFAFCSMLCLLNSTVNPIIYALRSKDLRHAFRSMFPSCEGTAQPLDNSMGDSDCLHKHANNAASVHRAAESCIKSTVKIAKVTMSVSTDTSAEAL

| Compound | inhibition at 10 µM [%] |
| --- | --- |
| CNC(=O)[C@@H](N)[C@H]1CNC[C@H]1O [Compound I.4, .-amino-(4-hydroxy-pyrrolidin-3-yl)-N-methylacetamide(αS,3R,4S)] | 29 |
| N[C@@H](C(=O)O)[C@@H]1CNC[C@@H]1O [Compound I.2, (αR,3S,4R) α-amino-(4-hydroxy-pyrrolidin-3-yl)acetic acid] | 29 |
